Counter-ions that a name gives are not always drawn.

Consider 2 compounds from US11000518B2, “Use of combination of VEGFR inhibitor and PARP inhibitor in preparation of medicament for treating gastric cancer” (Jiangsu Hengrui Medicine Co., Ltd., priority 2016, dated 2021).

Assay [1] has as its system advanced prostate cancer patients with DNA repair gene mutations. The note with it: phase II clinical trial; cited from earlier work.
Assay [2] concerns human gastric cancer PDX model STO #069. As to the kind of experiment: Efficacy on subcutaneous implantation tumor of human gastric cancer PDX model STO #069 tumor-bearing nude mice. The class given is in vivo, BALB/c nude mice.
Description: Efficacy of the Composition of the Present Invention on the Subcutaneous Implantation Tumor of Human Gastric Cancer PDX Model STO #069 Tumor-Bearing Nude Mice
Test animals: BALB/c nude mice, 6-7 weeks old, female, purchased from Beijing Vital River Laboratory Animal Technology Co., Ltd., with laboratory animals use license No.: SCXK (Shanghai) 2015-0022 and animal certificate No.: 11400700166108, feeding condition: SPF grade.
Control group: solvent group.
Compound A: compound A (100 mg) was weighed, added with 0.5% carboxymethylcellulose solution (10 mL), vortex-mixed or ultrasonic-mixed until the solution was clear, and stored at 4° C., and the dose volume was 5 mL/kg;
Compound B: compound B (540 mg) was weighed and dissolved in purified water (31 mL), then added with 0.2% Tween 80 (0.18 mL) and 10% PEG 400 (9.0 mL), vortex-mixed until the solution was clear, followed by adding purified water to a solution volume of 90 mL and storing at 4° C., and the dose volume was 5 mL/kg;
Cisplatin: cisplatin (3 mg) was weighed and dissolved in normal saline (6.0 mL), the concentration of the solution was 0.5 mg/mL, and the solution was prepared to a total of 6.0 mL, stored at 4° C., and filtrated with a 0.22 μm Millipore Millex® membrane before each use;
Paclitaxel: paclitaxel (6 mg/mL, 1.5 mL) was formulated into a solution (1.5 mg/mL) with normal saline (6.0 mL) and stored at 4° C., which was freshly formulated before each use.
After the tumor grew to 600-700 mm^3, it was passaged in the nude mice, which were defined as passage 0 (P0); after implantation of tumor passage 0 (P0), the mice were defined as passage 1 (P1); the passage was thus defined according to the order continuously implanted in nude mice; the next passage generated from FP5 was defined as FP6, and so on; and the FP6 tumor tissue was used for this study.
(1) Tumor implantation: the STO #069 FP6 tumor tissue (which was pathologically diagnosed as gastric poorly differentiated adenocarcinoma) was cut into small pieces (˜30 mm^3), and implanted subcutaneously into the right side of the nude mice. After the mean tumor size was close to 150-250 mm^3, the mice were grouped and treated, a total of 7 groups, each group of 6 tumor-bearing mice.
(2) Observation and recording: the tumor volume was measured 2-3 times per week, the mice were weighed, and the data were recorded.
The tumor volume was measured twice a week with a caliper and measured in two dimensions, the unit is mm^3;
V=½×a×b^2, wherein a and b represented length and width, respectively.
T/C (%)=(T−T0)/(C−C0)×100%, wherein T and C represented the tumor volumes of the administration group and the solvent group at the end of the experiment, respectively; and T0 and C0 represented the tumor volumes of the administration group and the solvent group at the start of the experiment, respectively.
The endpoint of the experiment: The endpoint of the efficacy study was set to 21 days. If the tumor volume>2000 mm^3, or if a nude mouse lost more than 20% of its weight or was very ill and cannot get enough food or water, the nude mouse would be removed from the experimental group and euthanized.
The mark [3] stands for this setting: D 21, compound A 50 mg/kg PO QD × 21, compound B 30 mg/kg PO BID × 21, cisplatin 5 mg/kg IP QW × 3, paclitaxel 15 mg/kg IP QW × 3.

For the compound `O=C(c1cc(Cc2n[nH]c(=O)c3ccccc23)ccc1F)N1CCN(C(=O)C2CC2)CC1` [Olaparib], in assay [1], the response is 88%.

As for `N#CC1(c2ccc(NC(=O)c3cccnc3NCc3ccncc3)cc2)CCCC1` [Compound A, Apatinib mesylate], the Partial regression in assay [2] (6 animals per group, same doses as TGI column) came out at 0. In assay [2] (D 0 = first administration time (baseline), STO#069 nude mice, n = 6), the “Mean tumor volume (mm^3) (Mean ± SEM) D 0” value was 185.4 ± 17.0 mm^3. For the same compound, in assay [2] (setting [3]), the “% T/C D 21” value is given as 44.68%, the “% tumor growth inhibition (TGI) D 21” value is listed as 55.32% and the “Mean tumor volume (mm^3) (Mean ± SEM) D 21” value is 465.9 ± 17.0 mm^3. Further, the tumor inhibition rate in assay [2] (Day 21 of administration, compound A 50 mg/kg QD×21, compound B 30 mg/kg BID×21, cisplatin 5 mg/kg QW×3, paclitaxel 15 mg/kg QW×3) stood at 55.32%.
